Measured values: patent publication US20260308691A1, “NOVEL USE OF AN INHIBITOR OF THE POLY-ADP RIBOSE POLYMERASE (PARP) IN THE TREATMENT OF CANCER” (TESARO, Inc., priority 2023, published 2026)
pIC50: −log10 of the molar value. Entries after “also recorded” stand apart in the source; their conditions may differ.

Columns and labels:
Assay type in all cases: cell-based, human
[1] = test system: Patient-derived organoids (PDOs), HNSCC and NSCLC; experiment: Cytotoxicity in patient-derived organoids (Cell titre glow dose-response curve); conditions: for PDO response to niraparib compared with cisplatin: resistant and sensitive PDOs, 6 days
Description: (§1) A multi-modal assay was developed to test tumour cell response to niraparib and the effects of the treatment on immune cells. The assay is illustrated in FIG. 1. […] After 5 to 7 days (according to the proliferation rate of each PDO), one plate is treated with different doses of niraparib and DMSO for cytotoxicity evaluation. The remaining plates, PDOs are treated with niraparib (1.4 μM), cisplatin (4.7 μM), DMSO or saline solution (control) for 7 days. Following the treatment period, the media from one plate/condition (i.e. one DMSO and one Niraparib-treated plate) is collected for exosomes isolation and analysis of DNA length and the PDOs are processed to extract RNA for RNAseq and qRT-PCR (see the details in the qRT-PCR analysis section). For both niraparib and cisplatin treated samples (and the respective controls) PDOs are collected from the remaining plates and, after washing out BME, are plated into low adherence 96 well plates in a 1 to 6 ratio with Peripheral Blood Mononuclear Cells (PBMCs) pre-stimulated for a total of 4 days using anti-CD3 in combination anti-CD28 (as costimulatory signal) antibodies. The PDOs are co-cultured for 48 h after which all the cells are collected, the not infiltrating immune cells are washed off and the rest is either digested to single cells or fixed and embedded as whole tissue. For flow cytometry analysis the single cells are blocked, stained with antibody mix, fixed, and run on a flow cytometer. For imaging, the embedded organoids are labelled with different antibodies, cleared, and imaged.
PDOs are seeded as single cells at a certain density (according to their growth rate) in 15 μl BME/dome.
1 dome per well in 24-wells plate with 1 ml of complete media/each well. […] 150 μl of the solution is collected from each well and transferred to a 96 well plate for the reading performed with Clariostar Plus (BMG Labtech). […]

[2] = test system: CD45 positive cells infiltrating PDOs; experiment: Flow cytometry of CD45 positive immune cells infiltrating PDOs after coculture with activated PBMC; conditions: 48 h coculture
Description: as §1
After 48 h of co-culture, PDOs are collected. The non-infiltrating immune cells are separated with a cell strainer while the organoids and infiltrating immune cells reduced to single cell level. Live dead exclusion is performed incubating the cells with Zombie dye for 30 minutes at room temperature. Following a blocking step in MACS buffer and anti-human and mouse IgG, staining is performed in
MACS buffer with mouse anti human CD3, CD8, CD4, CD56, CD226, CD45, TIGIT, PD1, PDL1, EpCAM, PVRIG, TIM3, CD96, CD14 and CD11b antibodies for one hour at 4° C. The cells are then fixed and DNA staining performed. The cell-containing tubes are running on CytoFLEX (Beckman Coulter), and data analyzed with FlowJo software.

PD1 = experiment: Flow cytometry of PD1 expression on CD4 positive cells cocultured with PDOs; conditions: niraparib-treated PDOs, 48 h coculture
Description: as §1, with “The PDOs are co-cultured for 48 h after which all the cells are collected, the not infiltrating immune cells are washed off and the rest is either digested to single cells or fixed and embedded as whole tissue. For flow cytometry analysis the single cells are blocked, stained with antibody mix, fixed, and run on a flow cytometer. For imaging, the embedded organoids are labelled with different antibodies, cleared, and imaged.” left out
(§2) MACS buffer with mouse anti human CD3, CD8, CD4, CD56, CD226, CD45, TIGIT, PD1, PDL1, EpCAM, PVRIG, TIM3, CD96, CD14 and CD11b antibodies for one hour at 4° C. […] The cell-containing tubes are running on CytoFLEX (Beckman Coulter), and data analyzed with FlowJo software.

PD-L1 = PD-L1 expression in PDO tumour cells cocultured with activated PBMC (flow cytometry and multiplex imaging); conditions: resistant PDOs, co-cultured 48 h with activated PBMC
Description: A multi-modal assay was developed to test tumour cell response to niraparib and the effects of the treatment on immune cells. The assay is illustrated in FIG. 1. […] After 5 to 7 days (according to the proliferation rate of each PDO), one plate is treated with different doses of niraparib and DMSO for cytotoxicity evaluation. The remaining plates, PDOs are treated with niraparib (1.4 μM), cisplatin (4.7 μM), DMSO or saline solution (control) for 7 days. Following the treatment period, the media from one plate/condition (i.e. one DMSO and one Niraparib-treated plate) is collected for exosomes isolation and analysis of DNA length and the PDOs are processed to extract RNA for RNAseq and qRT-PCR (see the details in the qRT-PCR analysis section). […]
as §2
Multiplex fluorescence imaging assay is performed on a single 6-micron cryosection of fixed-frozen PDOs. […]

[3] = test system: EpCAM positive cells of PDOs; experiment: Tumour cell viability by flow cytometry (live cells within EpCAM positive cells) after coculture with PBMC; conditions: 1.4 μM niraparib or DMSO 7 days, 48 h coculture with PBMC
Description: as §1, with “The PDOs are co-cultured for 48 h after which all the cells are collected, the not infiltrating immune cells are washed off and the rest is either digested to single cells or fixed and embedded as whole tissue. For flow cytometry analysis the single cells are blocked, stained with antibody mix, fixed, and run on a flow cytometer. For imaging, the embedded organoids are labelled with different antibodies, cleared, and imaged.” left out
Cell viability is evaluated by flow cytometry analysis performed after 48 h of co-culture subsequent to 7 days of treatment with 1.4 μM Niraparib or DMSO (as control). […]

[4] = test system: exosomal DNA (exoDNA) from PDOs; experiment: Length of DNA isolated from exosomes (exoDNA) of treated PDOs; conditions: for exoDNA length, sensitive PDO HNX29: HNX29 (sensitive, representative), exosomes collected after 6 days, compared to control
Description: as §1, with “The remaining plates, PDOs are treated with niraparib (1.4 μM), cisplatin (4.7 μM), DMSO or saline solution (control) for 7 days.” left out
Exosomes are obtaining by a series of centrifugations and ultra-centrifugations at increasing speeds of the media collected from the PDO cultures. Each sample is split into two tubes for the ultracentrifugation (for subsequent protein and genomic analysis).
DNA is extracted from exosomes via silica-membrane based nucleic acid purification by QIAamp Blood DNA extraction Kit (QIAGEN) and quantified by Qubit dsDNA HS kit. The Genomic DNA ScreenTape assay on the Agilent 4200 Tapestation system is used to assess the length of DNA and the R package bioanalyzeR exploited to obtain the DNA size distribution and number of molecules at different sizes. Part of the exosome DNA is sequenced using Oxford Nanopore Promethion for a drug treatment and a control experiment. For both samples, reads are then aligned to the human genome (hg38) using minimap2, and the following analyses performed. For every gene for which there are any aligned reads, the following is calculated: • Fragments per kilobase million (FPKM) as a normalised metric of representation of gene in the exosome dataset • The maximum fraction of total gene length that is covered by a single nanopore read. • The median fraction of total gene length that is covered by all nanopore reads that aligned to that gene • Coding and non-coding variants (for all bases for which there was a minimum depth of 20 reads) • Hypomethylation of CpG island of coding variants

SMILES	pIC50 ([1]; Homo sapiens, 168 h, read-out: IC50 threshold (inflection point) above which increased infiltration of CD45 positive cells is observed, PDOs from multiple tumour types, dose-response curve after 7 days of treatment)	PDO response to niraparib compared with cisplatin [1]	infiltration of CD45 positive cells, niraparib-treated resistant PDOs ([2]; resistant PDOs (high niraparib IC50), niraparib 1.4 μM 7 days, vs DMSO)	infiltration of CD45 positive cells, niraparib-treated sensitive PDOs ([2]; sensitive PDOs (low niraparib IC50), niraparib 1.4 μM 7 days, vs DMSO)	PD1 expression in infiltrating CD4 positive cells (PD1; infiltrating CD4 positive (T) cells)	PD1 expression in non-infiltrating CD4 positive cells (PD1; non-infiltrating CD4 positive cells)	PD-L1 expression in niraparib-treated tumour cells (PD-L1; vs DMSO)	threshold ratio (niraparib/DMSO) in tumour cell viability between sensitive and resistant cancers [3]	change / ratio (niraparib/DMSO) in tumour cell viability ([3]; sensitive vs resistant PDOs)	correlation of exoDNA length with niraparib IC50 ([4]; 6 HNSCC and 3 NSCLC PDOs)	exoDNA length, sensitive PDO HNX29 [4]	threshold ratio (niraparib/DMSO) of exosomal DNA length ([4]; ROC curve vs IC50 value, 10 PDOs, sensitivity 100%, specificity 67%)	exoDNA length, niraparib-treated, versus niraparib sensitiveness ([4]; compared to exoDNA from DMSO-treated counterpart)	exoDNA length, niraparib-treated more resistant PDOs ([4]; resistant PDOs, compared to DMSO-treated counterpart)	infiltration of CD45 positive cells, cisplatin-treated resistant PDOs ([2]; PDOs classified as resistant to niraparib, cisplatin 4.7 μM 7 days, vs saline)	infiltration of CD45 positive cells, cisplatin-treated sensitive PDOs ([2]; PDOs classified as sensitive to niraparib, cisplatin 4.7 μM 7 days, vs saline)	PD-L1 expression in cisplatin-treated tumour cells (PD-L1; vs saline)	exoDNA length, cisplatin-treated PDOs more resistant to niraparib ([4]; PDOs more resistant to niraparib, cisplatin-treated)
NC(=O)c1cccc2cn(-c3ccc([C@@H]4CCCNC4)cc3)nc12 [niraparib]	5.92 to 6.00	similar	increased in resistant samples; also recorded: increased infiltration of CD45 positive cells; also recorded: increased levels of CD45 positive cell infiltration	reduced in sensitive samples; also recorded: decreased infiltration with CD45 positive cells	PD1 expression increases with the increased in IC50 value; also recorded: upregulate PD1 expression; also recorded: high levels of PD1 expression	PD1 expression negatively correlates with niraparib IC50 value	upregulation of PD-L1 expression; also recorded: PDL1 upregulation; also recorded: high levels of PD-L1, or PD-L1 upregulation	0.75	higher ratio (naraparib/DMSO) in tumour cell viability; also recorded: only pronounced in cancers that are sensitive to the PARP inhibitor, niraparib	exoDNA length correlates with the niraparib IC50	higher	1.1	increased with the increase of niraparib sensitiveness	shorter	–	–	–	–
N.N.[Cl][Pt][Cl] [cisplatin]	–	similar	–	–	–	–	–	–	–	–	higher	–	–	–	higher infiltration of CD45 pos cells; also recorded: increased infiltration of CD45 positive cells	decreased infiltration with CD45 positive cells	upregulation of PDL1 expression	shorter
